This is an account of results in patent publication US20210346368A1, “ANTIBIOTIC SOLUTION AND METHOD OF INJECTION TO PREVENT OPHTHALMIC INFECTIONS” (priority 2017, published 2021).

This assay is described as follows: injection of moxifloxacin antibiotic solution into the anterior segment of the eye during surgery to prevent endophthalmitis. In kind it is in vivo. As to the method: Further details regarding the structure, preparation, and physical properties of moxifloxacin are provided in U.S. Pat. Nos. 4,990,517 and 5,607,942, and German application DE19937116, all of which are incorporated herein by reference. In one embodiment, the antibiotic solution may comprise […] of cyanocobalamin, or an amount sufficient to tint or color the resulting antibiotic solution. The antibiotic solution may further comprise any suitable carrier fluid (e.g., liquid diluents such as water, ethyl alcohol, or propylene glycol), so long as the resulting solution has osmotic values that are compatible with the aqueous humor of the eye and ophthalmic tissues. In one embodiment, the antibiotic solution is prepared and stored in a single-dose vial, without the need for preservatives. This allows the surgeon to provide an accurate concentration in sterile environments. Further, due to the antibiotic solution comprising cyanocobalamin, the resulting antibiotic solution is red in color. This provides a visual enhancement to the surgeon when injecting into the eye. For example, a surgeon would inject around 0.3 milliliters of the antibiotic solution (e.g., solution comprising moxifloxacin and cyanocobalamin) into the anterior segment of the eye during the intraoperative portion of cataract surgery. […]

The structures appear in SMILES notation.

With `COc1c(N2C[C@@H]3CCCN[C@@H]3C2)c(F)cc2c(=O)c(C(=O)O)cn(C3CC3)c12` [moxifloxacin], for the setting “200 micrograms to 600 micrograms of moxifloxacin injected into the eye”, the “effectiveness (preliminary results)” value is reported as “effective”. Besides, the risk of endophthalmitis result (moxifloxacin injected into the anterior segment of the eye) was “significantly reduced or eliminated altogether”.
